Measurements reported in PMC9405451, “Uptake and Immunomodulatory Properties of Betanin, Vulgaxanthin I and Indicaxanthin towards Caco-2 Intestinal Cells” (Antioxidants, 2022).
Values belong to the compound of their own block, whether it stands above or below them.

Experiments:
[1] = system: IL-6; test: IL-6 mRNA level (qPCR) in cytokine-stimulated Caco-2 cells; assay type: cell-based, human
Method: (§1) Confluent Caco-2 cells were stimulated with a cocktail of cytokines comprised of tumour necrosis factor-α (TNF-α, 20 ng mL^−1), interleukin-1β (IL-1β, 40 ng mL^−1), interferon-γ (IFN-γ, 10 ng mL^−1) and lipopolysaccharide (LPS, 100 ng mL^−1) in the presence or absence of BET, VUL and IND treatments (5–80 µM) for 6 h. With the completion of incubations, cells were washed with cold DPBS and lysed with TRIsure reagent (Scientific Laboratory Supplies Ltd.). Total RNA of cell samples was extracted in accordance with the manufacturer’s instructions. After resuspending the RNA pellets in DEPC water, concentration and quality were determined using the NanoQuant plate (Tecan Spark 10M plate reader) at 260 and 280 nm. Reverse transcription of RNA was achieved using the iScript™ cDNA Synthesis Kit (Bio-Rad). Transcription levels of target genes—interleukin 6 (IL-6), IL-8, COX-2, iNOS, NADPH oxidase 1 (NOX-1), NAD(P)H quinone dehydrogenase 1 (NQO-1), heme oxygenase 1 (HO-1), glutamate-cysteine ligase catalytic subunit (GCLC), glutathione peroxidase 1 (GPX-1), glutathione S-transferase 1 (GSTA-1) and GSTP-1 were evaluated using SybrGreen based reagent (SensiFast SYBR Green, SLS Ltd., Galveston, TX, USA) via real-time qPCR using StepOne Plus Real-Time PCR System (Applied Biosystems, Nottingham, UK). Primers of target genes were designed and blasted using the NCBI database, whose PCR product sizes were confirmed by 2% agarose gel electrophoresis. The list of primer sequences used in the study is presented in Supplemental Table S1. The calculation of target gene levels was based upon the Livak (2^−ΔΔCT) method with normalisation to the housekeeping gene, β-actin [31].

[2] = system: IL-8; test: IL-8 mRNA level (qPCR) in cytokine-stimulated Caco-2 cells; assay type: cell-based, human
Method: as §1

[3] = system: COX-2; test: COX-2 mRNA level (qPCR) in cytokine-stimulated Caco-2 cells; assay type: cell-based, human; settings: 5–80 μM, 6 h cytokine stimulation, maximum effect
Method: as §1, with “Primers of target genes were designed and blasted using the NCBI database, whose PCR product sizes were confirmed by 2% agarose gel electrophoresis. The list of primer sequences used in the study is presented in Supplemental Table S1. The calculation of target gene levels was based upon the Livak (2^−ΔΔCT) method with normalisation to the housekeeping gene, β-actin [31].” left out

[4] = system: differentiated Caco-2 cells; test: Trans-epithelial transport (AP-to-BL) across differentiated Caco-2 monolayer; assay type: in vitro ADME, human; settings: AP-to-BL
Method: (§2) Trans-epithelial transport of purified betalains (AP-to-BL) was investigated in differentiated Caco-2 cells in 12-well plate transwell inserts (PET membrane, 0.4 μm pore size, Sarstedt) at an initial density of 1 × 10^5 cells cm^−2. Complete medium was added in both apical (AP) and basolateral (BL) chambers and was replaced every 2–3 days. Cell membrane integrity was monitored weekly through measurement of trans-epithelial electrical resistance (TEER) across the growth area until full differentiation of the cells after 21 days. During the experiment, Hanks’ balanced salt solution (HBSS) in the apical compartment was adjusted to pH 6.5 with MES (2 mM), while basolateral pH remained at 7.5 [25]. Purified BET, VUL and IND (420–1000 μM) were supplied to the apical side of the membrane and incubated at 37 °C for up to 2 h. As a marker compound of paracellular transport, phenolsulfonaphtalein (5 mM) was also applied to parallel cell membranes in the apical chamber. The study also evaluated the permeability of compounds through the Caco-2 membrane with a loosened tight junction in parallel wells which was achieved by 5-min incubation of differentiated membrane in trypsin EDTA (0.05%, v/v). The basolateral solution was collected and replaced every 30 min until 2 h, under initial rate conditions. The betalain-containing solutions were processed and submitted to LC-MS analysis, while phenolsulfonaphtalein was quantified spectrophotometrically at λ of 430 nm. TEER values were monitored at the beginning and the end of the experiment to check the impact of compounds on monolayer integrity. The apparent permeability coefficients (Papp) were calculated as per Equation (1), where V = volume of basolateral solution, A = cell growth area, C0 = initial concentration of apical betalain and dC/dt = steady-state flux across the monolayer. (1) Papp=1/C0×A·V×dC/dt
(§3) Betalain compounds from the cell culture samples were quantified and identified by an ultra-high-speed LC fitted with a UV-Vis detector (SPD-20A), followed by a single quadrupole MS with an electrospray ionisation source (ESI) (Shimazu, 2020). HPLC separation was performed by a reverse phase C18 column (100 mm × 2.1 mm I.D., 3.5 μm) at the temperature of 35 °C. […] Betacyanins and betaxanthins were detected at the wavelengths of 536 nm and 486 nm, respectively, and their molecular weights were monitored by ESI-MS with positive ion mode. Compounds were identified based on the m/z values and quantified using standard curves with purified betalains, as shown in Supplemental Figure S1.

[5] = as above; assay type: in vitro ADME, human; settings: human, Caco-2, 1 mM in AP chamber, apical pH 6.5, basolateral pH 7.5, read-out: Papp (apparent permeability coefficient), absorptive direction AP-to-BL
Method: as §2, §3

[6] = system: iNOS; design: method as in PMID 23931157; settings: 25 μM; cited from earlier work
[7] = system: COX-2; design: method as in PMID 24306215; settings: rat model of carrageenan-induced pleurisy; cited from earlier work
[8] = design: method as in PMID 15447903, PMID 24306215, PMID 28358315; settings: in vivo; cited from earlier work
[9] = system: NOX-1; test: NOX-1 mRNA level (qPCR) in cytokine-stimulated Caco-2 cells; assay type: cell-based, human; settings: 5–80 μM, 6 h cytokine stimulation, maximum effect
Method: as §1, with “Primers of target genes were designed and blasted using the NCBI database, whose PCR product sizes were confirmed by 2% agarose gel electrophoresis. The list of primer sequences used in the study is presented in Supplemental Table S1. The calculation of target gene levels was based upon the Livak (2^−ΔΔCT) method with normalisation to the housekeeping gene, β-actin [31].” left out

[10] = system: Caco-2 cells; test: Intracellular ROS formation (DCFH2-DA) in H2O2-stressed Caco-2 cells; assay type: cell-based, human; settings: at 80 μM, 200 μM H2O2
Method: The generation of reactive oxygen species (ROS) within Caco-2 cells was determined in 96-well plates with the probe 2′,7′-dichlorodihydrofluorescein diacetate (DCFH2-DA), which is intracellularly deacetylated and oxidised to highly fluorescent 2′,7′-dichlorofluorescein (DCF). DCFH2-DA (30 µM) dissolved in PBS with 1% FBS (v/v) was applied to the confluent Caco-2 cells and incubated for 40 min at 37 °C. After washing, cells were treated with BET, VUL and IND (5–80 μM) for 1 h and subsequently stressed with H2O2 (200 μM) for a further 1 h. The plate was scanned using Tecan Spark 10M^TM with excitation λ of 485 nm and emission λ of 535 nm. Subsequently, the protein content of each well was determined by SRB assay. Briefly, the medium was removed and the cells were washed with PBS and submerged with 50 μL of 0.004% SRB solution (w/v) in 10% trichloroacetic acid (w/v). Cells were incubated at room temperature for 15 min and washed with 1% acetic acid (200 μL, v/v). After treating with Tris base (10 mM, 100 μL), cells were incubated for 5 min under shaking conditions. Finally, the plate was scanned using a Tecan plate reader with excitation λ of 540 nm and emission λ of 590 nm. Results of the ROS assay were normalised to the relative protein content for each well and expressed as the relative fluorescence intensity % (RFI) with respect to the value of positive control.

[11] = system: GCLC; test: GCLC mRNA level (qPCR) in cytokine-stimulated Caco-2 cells; assay type: cell-based, human; settings: 5–80 μM, 6 h cytokine stimulation, vs SC
Method: as §1, with “Primers of target genes were designed and blasted using the NCBI database, whose PCR product sizes were confirmed by 2% agarose gel electrophoresis. The list of primer sequences used in the study is presented in Supplemental Table S1. The calculation of target gene levels was based upon the Livak (2^−ΔΔCT) method with normalisation to the housekeeping gene, β-actin [31].” left out

[12] = system: GPX-1; test: GPX-1 mRNA level (qPCR) in cytokine-stimulated Caco-2 cells; assay type: cell-based, human; settings: 5–80 μM, 6 h cytokine stimulation, vs SC
Method: as §1, with “Primers of target genes were designed and blasted using the NCBI database, whose PCR product sizes were confirmed by 2% agarose gel electrophoresis. The list of primer sequences used in the study is presented in Supplemental Table S1. The calculation of target gene levels was based upon the Livak (2^−ΔΔCT) method with normalisation to the housekeeping gene, β-actin [31].” left out

[13] = design: method as in PMID 18959410; settings: cited from earlier work
[14] = system: iNOS; design: method as in PMID 24306215; settings: rat model of carrageenan-induced pleurisy; cited from earlier work
[15] = EPR DPPH radical scavenging assay; settings: 20 μM betalain
Method: (§4) Electron paramagnetic resonance (EPR) with spin trapping was used to determine superoxide and DPPH radical scavenging abilities of betalains reflected by the reduction of relative signal strength. EPR spectra were recorded 1 min after reagent mixing on a JEOL X320 spectrometer (X-band) in glass capillaries (0.8 mm ID). Superoxide assay was carried out by mixing the following solutions in 30% aqueous ethanol as solvent: hypoxanthine (1 mM, 55 μL), 5,5-dimethyl-1-pyrroline-N-oxide (DMPO) (1 M, 15 μL) and deferoxamine (10 mM, 10 μL). Individual betalains (200 and 500 μM) or solvent control were subsequently added in a volume of 10 μL. The reaction was initiated by the addition of 2 U mL^−1 xanthine oxidase (10 μL), achieving 20 and 50 μM as final concentrations of betalains in the mixture.
(§5) The 2,2-diphenyl-1-(2,4,6-trinitrophenyl)hydrazyl (DPPH) assay was conducted by mixing ethanol (40 μL) with 30% aqueous ethanol solutions of DPPH (100 μM, 50 μL) and purified betalains (200 μM, 10 μL), providing the working concentration of betalains as 20 μM. In both assays, acquisition of EPR spectra was started 1 min after reagent mixing. To improve the accuracy of measurements, the signal intensity for the superoxide assay was determined in triplicate by fitting the experimental spectra to the simulated superoxide-DMPO adduct spectra.

[16] = system: differentiated Caco-2 cells; test: Intracellular accumulation in differentiated Caco-2 cells; assay type: in vitro ADME, human; settings: 250 μM, 2 h incubation in HBSS
Method: For accumulation experiments, differentiated Caco-2 cells were incubated with purified BET, VUL and IND (250 μM) for 2 h in HBSS. The cell layer was washed twice with DPBS prior to being scraped into methanol, and pigments were subsequently extracted for LC-MS analysis. The total protein content of lysed cells was determined by bicinchoninic acid (BCA) assay (Pierce™ Thermo Scientific) in accordance with the manufacturer’s instructions.
as §3

[17] = system: COX-2; design: method as in PMID 23931157; settings: 25 μM; cited from earlier work
[18] = system: GSTA-1; test: GSTA-1 mRNA level (qPCR) in cytokine-stimulated Caco-2 cells; assay type: cell-based, human; settings: 5–80 μM, 6 h cytokine stimulation, vs SC
Method: as §1, with “Primers of target genes were designed and blasted using the NCBI database, whose PCR product sizes were confirmed by 2% agarose gel electrophoresis. The list of primer sequences used in the study is presented in Supplemental Table S1. The calculation of target gene levels was based upon the Livak (2^−ΔΔCT) method with normalisation to the housekeeping gene, β-actin [31].” left out

[19] = EPR spin-trapping superoxide radical scavenging assay; settings: 20, 50 μM betalain
Method: as §4, §5

[20] = system: NOX-1; design: method as in PMID 23931157; settings: 25 μM; cited from earlier work
[21] = system: iNOS; test: iNOS mRNA level (qPCR) in cytokine-stimulated Caco-2 cells; assay type: cell-based, human; settings: 5–80 μM, 6 h cytokine stimulation, maximum effect
Method: as §1, with “Primers of target genes were designed and blasted using the NCBI database, whose PCR product sizes were confirmed by 2% agarose gel electrophoresis. The list of primer sequences used in the study is presented in Supplemental Table S1. The calculation of target gene levels was based upon the Livak (2^−ΔΔCT) method with normalisation to the housekeeping gene, β-actin [31].” left out

[22] = 10 μM co-treatment, 6 h, positive control (not shown)
[23] = 5–80 μM, 6 h cytokine stimulation, maximum effect

SMILES: COc1cc(/C=C/C(=O)CC(=O)/C=C/c2ccc(O)c(OC)c2)ccc1O [curcumin, reference compound]
Effect on cytokine-induced IL-6 generation [1, 22]: strongly suppressed
Effect on cytokine-induced IL-8 generation [2, 22]: strongly suppressed

Proportion transported within 2 h of total amount applied [4]: 2.2%
Papp A→B at 2 h, 1 mM [5]: 0.893 ×10⁻⁶ cm/s
Intracellular accumulation [16]: 0.03 nmol per mg of protein
SMILES: O=C(O)C1=C/C(=C/C=[N+]2/CCC[C@H]2C(=O)[O-])C[C@@H](C(=O)O)N1 [IND, indicaxanthin]
Attenuation of COX-2 mRNA levels [3]: up to 34%
Suppression of iNOS protein levels [6]: 90%
Suppression of COX-2 [7]: 88%
Plasma concentration of IND compared with BET [8]: around 20 fold
Urinary recovery of IND compared with BET [8]: around 20 fold
Attenuation of NOX-1 mRNA levels [9]: up to 34%
Reduction of H2O2-stimulated ROS [10]: 14%
Upregulation of GCLC expression [11]: < 25%
Downregulation of IL-6 expression vs cytokine control (SC) [1, 23]: up to 50%
Upregulation of GPX-1 expression [12]: < 26%
Loss along the digestion [13]: minor loss
Suppression of iNOS [14]: 75%
Antiradical activity in DPPH assay (EPR) [15]: did not exhibit any evident antiradical activity
Suppression of COX-2 protein levels [17]: 80%
Induction of GSTA-1 expression [18]: < 50%
Antiradical activity in superoxide assay (EPR) [19]: did not exhibit any evident antiradical activity
Suppression of NOX-1 protein levels [20]: 89%
Reduction of iNOS mRNA levels [21]: < 42%
Downregulation of IL-8 expression vs cytokine control (SC) [2, 23]: ≤ 39%
